Measurements as given in patent publication US10344060B2 (priority 2013, dated 2019).
Where two headings read alike, the source gives them in different places.

Tests used:
Test in all cases: cell-based
hNav1.5 = hNav1.5 (Homo sapiens, UniProt Q14524); settings: IonWorks Quattro, read-out: IC50 (μM) Nav1.5
hNav1.3 = hNav1.3 (Homo sapiens, UniProt Q9NY46); settings: IonWorks Quattro, read-out: IC50 (μM) Nav1.3
hNav1.4 = hNav1.4 (Homo sapiens, UniProt P35499); format: cell-based; settings: for IC50: IonWorks Quattro, read-out: IC50 (μM) Nav1.4; for Nav1.4/Nav1.7: ratio of IonWorks Quattro IC50 values
hNav1.7 = hNav1.7 (Homo sapiens, UniProt Q15858); settings: read-out: IC50 (μM) Nav1.7
Sequence of hNav1.7 (Q15858 whole entry): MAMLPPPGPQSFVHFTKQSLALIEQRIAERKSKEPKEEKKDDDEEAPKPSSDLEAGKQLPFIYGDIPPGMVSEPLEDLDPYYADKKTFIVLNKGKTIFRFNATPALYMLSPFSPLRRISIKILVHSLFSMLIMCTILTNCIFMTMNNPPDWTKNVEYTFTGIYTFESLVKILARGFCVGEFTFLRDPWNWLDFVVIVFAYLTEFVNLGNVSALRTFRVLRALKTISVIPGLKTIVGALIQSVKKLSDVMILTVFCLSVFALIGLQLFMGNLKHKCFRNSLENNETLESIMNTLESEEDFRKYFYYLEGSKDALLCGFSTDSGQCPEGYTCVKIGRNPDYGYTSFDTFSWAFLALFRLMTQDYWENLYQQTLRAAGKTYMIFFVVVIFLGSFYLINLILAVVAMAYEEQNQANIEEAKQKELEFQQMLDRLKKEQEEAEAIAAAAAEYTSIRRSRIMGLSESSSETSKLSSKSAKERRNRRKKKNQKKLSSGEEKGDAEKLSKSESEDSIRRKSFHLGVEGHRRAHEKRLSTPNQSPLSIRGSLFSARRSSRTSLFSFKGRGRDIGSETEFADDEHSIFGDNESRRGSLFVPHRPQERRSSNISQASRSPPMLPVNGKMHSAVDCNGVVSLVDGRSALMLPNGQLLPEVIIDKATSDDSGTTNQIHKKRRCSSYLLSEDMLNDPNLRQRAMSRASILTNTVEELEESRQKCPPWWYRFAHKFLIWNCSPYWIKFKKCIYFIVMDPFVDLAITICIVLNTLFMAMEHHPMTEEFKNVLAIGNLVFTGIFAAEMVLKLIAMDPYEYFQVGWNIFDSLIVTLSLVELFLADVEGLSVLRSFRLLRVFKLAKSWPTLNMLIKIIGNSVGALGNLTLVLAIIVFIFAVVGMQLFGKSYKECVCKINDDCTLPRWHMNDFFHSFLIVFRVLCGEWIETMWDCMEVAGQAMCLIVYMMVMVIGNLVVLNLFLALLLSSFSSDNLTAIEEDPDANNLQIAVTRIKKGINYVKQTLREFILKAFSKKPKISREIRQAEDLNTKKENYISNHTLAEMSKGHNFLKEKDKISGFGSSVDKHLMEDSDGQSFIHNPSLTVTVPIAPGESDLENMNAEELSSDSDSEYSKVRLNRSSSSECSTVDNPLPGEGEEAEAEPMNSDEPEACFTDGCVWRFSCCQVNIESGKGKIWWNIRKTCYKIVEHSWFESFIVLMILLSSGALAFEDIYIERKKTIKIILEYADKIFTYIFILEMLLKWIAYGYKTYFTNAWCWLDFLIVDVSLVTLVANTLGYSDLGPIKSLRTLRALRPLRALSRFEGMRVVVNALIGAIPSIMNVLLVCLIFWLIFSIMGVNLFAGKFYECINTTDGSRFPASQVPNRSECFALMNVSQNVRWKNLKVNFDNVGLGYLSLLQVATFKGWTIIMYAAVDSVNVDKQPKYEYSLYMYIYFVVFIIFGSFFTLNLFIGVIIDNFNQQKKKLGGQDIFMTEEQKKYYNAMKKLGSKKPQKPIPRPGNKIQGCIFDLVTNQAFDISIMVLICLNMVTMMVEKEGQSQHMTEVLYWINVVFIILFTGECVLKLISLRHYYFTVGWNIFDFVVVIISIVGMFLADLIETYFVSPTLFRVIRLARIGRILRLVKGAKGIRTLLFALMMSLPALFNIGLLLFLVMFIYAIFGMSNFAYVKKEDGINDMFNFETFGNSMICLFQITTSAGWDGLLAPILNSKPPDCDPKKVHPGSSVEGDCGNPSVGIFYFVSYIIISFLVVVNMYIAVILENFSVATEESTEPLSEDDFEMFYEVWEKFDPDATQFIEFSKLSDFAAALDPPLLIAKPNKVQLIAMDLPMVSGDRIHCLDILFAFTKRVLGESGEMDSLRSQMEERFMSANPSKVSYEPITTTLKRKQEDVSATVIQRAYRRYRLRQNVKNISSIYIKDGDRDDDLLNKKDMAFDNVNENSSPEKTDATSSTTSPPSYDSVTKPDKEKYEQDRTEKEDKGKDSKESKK

Sequence of hNav1.3 (Q9NY46 whole entry): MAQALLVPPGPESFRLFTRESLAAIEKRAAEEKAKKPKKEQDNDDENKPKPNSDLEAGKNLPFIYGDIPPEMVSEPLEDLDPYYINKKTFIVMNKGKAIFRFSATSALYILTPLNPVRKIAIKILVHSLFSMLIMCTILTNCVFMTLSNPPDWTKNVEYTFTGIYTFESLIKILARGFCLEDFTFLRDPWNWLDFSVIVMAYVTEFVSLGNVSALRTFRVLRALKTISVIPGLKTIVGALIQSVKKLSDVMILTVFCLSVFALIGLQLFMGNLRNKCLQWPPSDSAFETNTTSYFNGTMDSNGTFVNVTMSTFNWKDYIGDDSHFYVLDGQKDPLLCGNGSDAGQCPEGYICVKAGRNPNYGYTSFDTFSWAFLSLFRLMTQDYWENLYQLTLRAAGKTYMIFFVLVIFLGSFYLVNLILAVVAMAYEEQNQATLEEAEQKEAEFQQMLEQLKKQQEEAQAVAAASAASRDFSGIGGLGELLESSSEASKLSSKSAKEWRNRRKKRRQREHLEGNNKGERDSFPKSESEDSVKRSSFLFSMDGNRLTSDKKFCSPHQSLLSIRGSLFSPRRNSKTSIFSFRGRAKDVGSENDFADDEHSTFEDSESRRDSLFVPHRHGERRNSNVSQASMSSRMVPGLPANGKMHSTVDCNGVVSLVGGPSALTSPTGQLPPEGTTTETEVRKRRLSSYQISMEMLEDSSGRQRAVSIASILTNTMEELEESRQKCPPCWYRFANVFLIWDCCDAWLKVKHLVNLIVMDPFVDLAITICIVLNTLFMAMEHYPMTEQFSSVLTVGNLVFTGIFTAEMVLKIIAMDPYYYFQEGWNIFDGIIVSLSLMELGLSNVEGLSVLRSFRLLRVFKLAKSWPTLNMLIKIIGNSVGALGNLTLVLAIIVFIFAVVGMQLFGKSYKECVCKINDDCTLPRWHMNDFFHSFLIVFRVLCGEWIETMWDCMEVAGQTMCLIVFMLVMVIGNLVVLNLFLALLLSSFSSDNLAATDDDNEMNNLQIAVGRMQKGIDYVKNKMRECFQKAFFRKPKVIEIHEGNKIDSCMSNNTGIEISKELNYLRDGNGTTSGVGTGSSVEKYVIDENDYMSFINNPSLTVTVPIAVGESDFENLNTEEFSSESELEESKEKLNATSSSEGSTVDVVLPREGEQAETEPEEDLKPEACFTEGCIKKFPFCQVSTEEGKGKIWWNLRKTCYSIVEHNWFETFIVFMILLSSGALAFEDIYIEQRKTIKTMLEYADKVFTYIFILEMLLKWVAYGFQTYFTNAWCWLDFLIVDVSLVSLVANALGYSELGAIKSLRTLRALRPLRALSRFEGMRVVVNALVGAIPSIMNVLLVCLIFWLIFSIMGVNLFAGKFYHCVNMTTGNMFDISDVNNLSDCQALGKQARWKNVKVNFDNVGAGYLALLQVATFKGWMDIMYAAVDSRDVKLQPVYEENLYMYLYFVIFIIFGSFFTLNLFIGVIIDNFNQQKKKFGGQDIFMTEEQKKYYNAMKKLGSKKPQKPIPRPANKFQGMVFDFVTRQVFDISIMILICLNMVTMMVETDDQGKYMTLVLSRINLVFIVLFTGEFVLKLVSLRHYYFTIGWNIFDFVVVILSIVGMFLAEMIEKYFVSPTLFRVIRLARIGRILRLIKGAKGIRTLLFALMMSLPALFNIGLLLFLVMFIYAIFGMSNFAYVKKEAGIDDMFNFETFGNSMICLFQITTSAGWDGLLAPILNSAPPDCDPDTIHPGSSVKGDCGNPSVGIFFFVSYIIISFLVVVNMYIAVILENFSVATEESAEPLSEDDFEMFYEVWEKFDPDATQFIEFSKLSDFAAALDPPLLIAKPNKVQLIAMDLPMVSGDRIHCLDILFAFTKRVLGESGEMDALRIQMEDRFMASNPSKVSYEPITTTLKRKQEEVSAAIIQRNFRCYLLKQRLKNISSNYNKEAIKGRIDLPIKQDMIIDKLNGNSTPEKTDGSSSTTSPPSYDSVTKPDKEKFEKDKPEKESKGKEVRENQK

Row | SMILES | IC50 (hNav1.5; Table 6) [µM] | IC50 (hNav1.3; Table 6) [µM] | IC50 (hNav1.4; Table 6) [µM] | Nav1.4/Nav1.7 (hNav1.4; Table 6) | IC50 (hNav1.7) [µM] | IC50 (hNav1.5; Table 9) [µM] | IC50 (hNav1.3; Table 9) [µM] | IC50 (hNav1.4; Table 9) [µM] | IC50 (hNav1.7; IonWorks Quattro, […]) [µM]
1 | CC[C@H](C)[C@H](NC(=O)[C@@H](NC(=O)[C@H](CCCCN)NC(=O)[C@H](CCCNC(=N)N)NC(=O)[C@@H]1CSSC[C@@H]2NC(=O)[C@H](C)NC(=O)[C@H](CCCNC(=N)N)NC(=O)[C@H](CCCCN)NC(=O)[C@H](CO)NC(=O)[C@H](CC(=O)O)NC(=O)[C@@H]3CSSC[C@H](NC(=O)[C@H](CCCNC(=N)N)NC(=O)[C@H](CC(C)C)NC(=O)CNC(=O)[C@H](CCC(=O)O)NC(=O)[C@H](CSSC[C@H](NC(=O)[C@@H](N)Cc4ccc(O)cc4)C(=O)N[C@@H](CCC(N)=O)C(=O)N[C@@H](CCCCN)C(=O)N[C@@H](Cc4c[nH]c5ccccc45)C(=O)N[C@@H](CCSC)C(=O)N[C@@H](Cc4c[nH]c5ccccc45)C(=O)N[C@@H]([C@@H](C)O)C(=O)N3)NC2=O)C(=O)N[C@@H](CCCCN)C(=O)N[C@@H](CCCNC(=N)N)C(=O)N[C@@H](Cc2c[nH]c3ccccc23)C(=O)N1)[C@@H](C)CC)C(N)=O [compound 105] | 2.8 | 0.15 | 0.21 | 1 | 0.15 | – | – | – | –
2 | CC[C@H](C)[C@H](NC(=O)[C@@H](NC(=O)[C@H](CCCCN)NC(=O)[C@H](CCCNC(=N)N)NC(=O)[C@@H]1CSSC[C@@H]2NC(=O)[C@H](C)NC(=O)[C@H](CCCNC(=N)N)NC(=O)[C@H](CCCCN)NC(=O)[C@H](CO)NC(=O)[C@H](CC(=O)O)NC(=O)[C@@H]3CSSC[C@H](NC(=O)[C@H](CCCNC(=N)N)NC(=O)[C@H](CC(C)C)NC(=O)CNC(=O)[C@H](CCCNC(=N)N)NC(=O)[C@H](CSSC[C@H](NC(=O)[C@@H](N)Cc4ccc(O)cc4)C(=O)N[C@@H](CCC(N)=O)C(=O)N[C@@H](CCCCN)C(=O)N[C@@H](Cc4c[nH]c5ccccc45)C(=O)N[C@@H](CCSC)C(=O)N[C@@H](Cc4c[nH]c5ccccc45)C(=O)N[C@@H]([C@@H](C)O)C(=O)N3)NC2=O)C(=O)N[C@@H](CCCCN)C(=O)N[C@@H](CC(C)C)C(=O)N[C@@H](Cc2c[nH]c3ccccc23)C(=O)N1)[C@@H](C)CC)C(N)=O [compound 101] | 0.95 | 0.04 | 0.06 | 4 | 0.014 | – | – | – | –
3 | CC[C@H](C)[C@H](NC(=O)[C@@H](NC(=O)[C@H](CCCCN)NC(=O)[C@H](CCCNC(=N)N)NC(=O)[C@@H]1CSSC[C@@H]2NC(=O)[C@H](C)NC(=O)[C@H](CCCNC(=N)N)NC(=O)[C@H](CCCCN)NC(=O)[C@H](CO)NC(=O)[C@H](CC(=O)O)NC(=O)[C@@H]3CSSC[C@H](NC(=O)[C@H](CCCNC(=N)N)NC(=O)[C@H](CC(C)C)NC(=O)CNC(=O)[C@H](CCC(=O)O)NC(=O)[C@H](CSSC[C@H](NC(=O)[C@@H](N)Cc4ccc(O)cc4)C(=O)N[C@@H](CCC(N)=O)C(=O)N[C@@H](CCCCN)C(=O)N[C@@H](Cc4c[nH]c5ccccc45)C(=O)N[C@@H](CCSC)C(=O)N[C@@H](Cc4c[nH]c5ccccc45)C(=O)N[C@@H]([C@@H](C)O)C(=O)N3)NC2=O)C(=O)N[C@@H](CCCCN)C(=O)N[C@@H](CC(C)C)C(=O)N[C@@H](CCCNC(=N)N)C(=O)N1)[C@@H](C)CC)C(N)=O [compound 106] | > 5 | 4.8 | 2.5 | 1 | 5 | – | – | – | –
4 | CC[C@H](C)[C@H](NC(=O)[C@@H](NC(=O)[C@H](CCCCN)NC(=O)[C@H](CCCNC(=N)N)NC(=O)[C@@H]1CSSC[C@@H]2NC(=O)[C@H](C)NC(=O)[C@H](CCCNC(=N)N)NC(=O)[C@H](C)NC(=O)[C@H](CO)NC(=O)[C@H](CC(=O)O)NC(=O)[C@@H]3CSSC[C@H](NC(=O)[C@H](CCCNC(=N)N)NC(=O)[C@H](CC(C)C)NC(=O)CNC(=O)[C@H](CCC(=O)O)NC(=O)[C@H](CSSC[C@H](NC(=O)[C@@H](N)Cc4ccc(O)cc4)C(=O)N[C@@H](CCC(N)=O)C(=O)N[C@@H](CCCCN)C(=O)N[C@@H](Cc4c[nH]c5ccccc45)C(=O)N[C@@H](CCSC)C(=O)N[C@@H](Cc4c[nH]c5ccccc45)C(=O)N[C@@H]([C@@H](C)O)C(=O)N3)NC2=O)C(=O)N[C@@H](CCCCN)C(=O)N[C@@H](CC(C)C)C(=O)N[C@@H](Cc2c[nH]c3ccccc23)C(=O)N1)[C@@H](C)CC)C(N)=O [compound 12] | > 5 | 0.15 | 0.26 | 12 | 0.022 | – | – | – | –
5 | CCCC[C@@H]1NC(=O)[C@H](Cc2c[nH]c3ccccc23)NC(=O)[C@H](CCCCN)NC(=O)[C@H](CCC(N)=O)NC(=O)[C@@H](NC(=O)[C@@H](N)Cc2ccc(O)cc2)CSSC[C@@H]2NC(=O)[C@@H]3CSSC[C@@H](C(=O)N[C@@H](CCCNC(=N)N)C(=O)N[C@@H](CCCCN)C(=O)N[C@H](C(=O)N[C@H](C(N)=O)[C@@H](C)CC)[C@@H](C)CC)NC(=O)[C@H](Cc4c[nH]c5ccccc45)NC(=O)[C@H](CC(C)C)NC(=O)[C@H](Cc4cn(CCCOCCOCCOCCOCCOCCOCCOCCOCCOCCOCCN)nn4)NC(=O)[C@H](CSSC[C@H](NC(=O)[C@H]([C@@H](C)O)NC(=O)[C@H](Cc4c[nH]c5ccccc45)NC1=O)C(=O)N[C@@H](CC(=O)O)C(=O)N[C@@H](CO)C(=O)N[C@@H](CCCCN)C(=O)N[C@@H](CCCNC(=N)N)C(=O)N[C@@H](C)C(=O)N3)NC(=O)[C@H](CCCNC(=N)N)NC(=O)[C@H](CC(C)C)NC(=O)CNC(=O)[C@H](CCC(=O)O)NC2=O [compound 264] | – | – | – | – | – | > 7 | > 7 | > 7 | > 7
6 | CC[C@H](C)[C@H](NC(=O)[C@@H](NC(=O)[C@H](CCCCN)NC(=O)[C@H](CCCNC(=N)N)NC(=O)[C@@H]1CSSC[C@@H]2NC(=O)[C@H](C)NC(=O)[C@H](CCCNC(=N)N)NC(=O)[C@H](CCCCN)NC(=O)[C@H](CO)NC(=O)[C@H](CC(=O)O)NC(=O)[C@@H]3CSSC[C@H](NC(=O)[C@H](CCCNC(=N)N)NC(=O)[C@H](CC(C)C)NC(=O)CNC(=O)[C@H](CCC(=O)O)NC(=O)[C@H](CSSC[C@H](NC(=O)[C@@H](N)Cc4ccc(O)cc4)C(=O)N[C@@H](CCC(N)=O)C(=O)N[C@@H](CCCCN)C(=O)N[C@@H](Cc4c[nH]c5ccccc45)C(=O)N[C@@H](CCSC)C(=O)N[C@@H](CCCCN)C(=O)N[C@@H]([C@@H](C)O)C(=O)N3)NC2=O)C(=O)N[C@@H](CCCCN)C(=O)N[C@@H](CC(C)C)C(=O)N[C@@H](Cc2c[nH]c3ccccc23)C(=O)N1)[C@@H](C)CC)C(N)=O [compound 75] | > 5 | 0.31 | 0.43 | 5 | 0.08 | – | – | – | –
7 | CC[C@H](C)[C@H](NC(=O)[C@@H](NC(=O)[C@H](CCCCN)NC(=O)[C@H](CCCNC(=N)N)NC(=O)[C@@H]1CSSC[C@@H]2NC(=O)[C@H](C)NC(=O)[C@H](C)NC(=O)[C@H](CCCCN)NC(=O)[C@H](CO)NC(=O)[C@H](CC(=O)O)NC(=O)[C@@H]3CSSC[C@H](NC(=O)[C@H](CCCNC(=N)N)NC(=O)[C@H](CC(C)C)NC(=O)CNC(=O)[C@H](CCC(=O)O)NC(=O)[C@H](CSSC[C@H](NC(=O)[C@@H](N)Cc4ccc(O)cc4)C(=O)N[C@@H](CCC(N)=O)C(=O)N[C@@H](CCCCN)C(=O)N[C@@H](Cc4c[nH]c5ccccc45)C(=O)N[C@@H](CCSC)C(=O)N[C@@H](Cc4c[nH]c5ccccc45)C(=O)N[C@@H]([C@@H](C)O)C(=O)N3)NC2=O)C(=O)N[C@@H](CCCCN)C(=O)N[C@@H](CC(C)C)C(=O)N[C@@H](Cc2c[nH]c3ccccc23)C(=O)N1)[C@@H](C)CC)C(N)=O [compound 13] | > 5 | 0.3 | 0.57 | 7 | 0.079 | – | – | – | –
8 | CC[C@H](C)[C@H](NC(=O)[C@@H](NC(=O)[C@H](CCCCN)NC(=O)[C@H](CCCNC(=N)N)NC(=O)[C@@H]1CSSC[C@@H]2NC(=O)[C@H](C)NC(=O)[C@H](CCCNC(=N)N)NC(=O)[C@H](CCCCN)NC(=O)[C@H](CO)NC(=O)[C@H](CC(=O)O)NC(=O)[C@@H]3CSSC[C@H](NC(=O)[C@H](CCCNC(=N)N)NC(=O)[C@H](CC(C)C)NC(=O)CNC(=O)[C@H](CCC(=O)O)NC(=O)[C@H](CSSC[C@H](NC(=O)[C@@H](N)Cc4ccc(O)cc4)C(=O)N[C@@H](CCC(N)=O)C(=O)N[C@@H](CCCCN)C(=O)N[C@@H](Cc4c[nH]c5ccccc45)C(=O)N[C@@H](CCSC)C(=O)N[C@@H](Cc4c[nH]c5ccccc45)C(=O)N[C@@H]([C@@H](C)O)C(=O)N3)NC2=O)C(=O)N[C@@H](C)C(=O)N[C@@H](CC(C)C)C(=O)N[C@@H](Cc2c[nH]c3ccccc23)C(=O)N1)[C@@H](C)CC)C(N)=O [compound 18] | > 5 | 0.52 | 0.41 | 7 | 0.062 | – | – | – | –
9 | CC[C@H](C)[C@H](NC(=O)[C@@H](NC(=O)[C@H](CCCCN)NC(=O)[C@H](CCCNC(=N)N)NC(=O)[C@@H]1CSSC[C@@H]2NC(=O)[C@H](CCCCN)NC(=O)[C@H](CCCNC(=N)N)NC(=O)[C@H](CCCCN)NC(=O)[C@H](CO)NC(=O)[C@H](CC(=O)O)NC(=O)[C@@H]3CSSC[C@H](NC(=O)[C@H](CCCNC(=N)N)NC(=O)[C@H](CC(C)C)NC(=O)CNC(=O)[C@H](CCC(=O)O)NC(=O)[C@H](CSSC[C@H](NC(=O)[C@@H](N)Cc4ccc(O)cc4)C(=O)N[C@@H](CCC(N)=O)C(=O)N[C@@H](CCCCN)C(=O)N[C@@H](Cc4c[nH]c5ccccc45)C(=O)N[C@@H](CCSC)C(=O)N[C@@H](Cc4c[nH]c5ccccc45)C(=O)N[C@@H]([C@@H](C)O)C(=O)N3)NC2=O)C(=O)N[C@@H](CCCCN)C(=O)N[C@@H](CC(C)C)C(=O)N[C@@H](Cc2c[nH]c3ccccc23)C(=O)N1)[C@@H](C)CC)C(N)=O [compound 80] | 1.5 | 0.03 | 0.07 | 10 | 0.007 | – | – | – | –
